The values below come from article PMC9658017, “Hydroxygenkwanin Improves the Efficacy of Cytotoxic Drugs in ABCG2-Overexpressing Multidrug-Resistant Cancer Cells” (International Journal of Molecular Sciences, 2022).

This assay addresses T1, ABCG2 (Homo sapiens, UniProt Q9UNQ0).
T1 sequence (Q9UNQ0 1-655): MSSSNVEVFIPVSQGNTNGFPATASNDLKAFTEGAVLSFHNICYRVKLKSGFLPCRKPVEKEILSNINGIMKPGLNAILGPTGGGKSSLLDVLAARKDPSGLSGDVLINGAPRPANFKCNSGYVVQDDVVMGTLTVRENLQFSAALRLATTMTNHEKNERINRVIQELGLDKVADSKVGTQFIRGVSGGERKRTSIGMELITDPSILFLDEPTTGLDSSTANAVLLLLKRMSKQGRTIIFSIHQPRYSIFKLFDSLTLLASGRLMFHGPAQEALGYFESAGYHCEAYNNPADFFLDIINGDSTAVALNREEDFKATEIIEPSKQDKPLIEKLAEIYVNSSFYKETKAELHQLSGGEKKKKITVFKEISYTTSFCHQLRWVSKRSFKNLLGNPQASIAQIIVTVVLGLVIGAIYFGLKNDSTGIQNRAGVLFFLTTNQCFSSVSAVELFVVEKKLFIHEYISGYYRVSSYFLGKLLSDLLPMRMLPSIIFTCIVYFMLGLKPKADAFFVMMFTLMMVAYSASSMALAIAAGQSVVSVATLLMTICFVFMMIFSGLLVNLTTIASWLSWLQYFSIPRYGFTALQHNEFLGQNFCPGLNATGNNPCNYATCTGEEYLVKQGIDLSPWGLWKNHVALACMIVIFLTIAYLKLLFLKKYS
Description: biochemical.

The EC50 is the concentration giving half of the maximal effect. Low readings indicate an effect from little substance, high ones a need for much substance.

With `COc1cc(O)c2c(=O)cc(-c3ccc(O)c(O)c3)oc2c1` [HGK, Hydroxygenkwanin], the EC50 was about 19 nM.
